{"source": "patent US20170209574A1", "about": "“COMBINATION THERAPIES” (Novartis AG, priority 2014, published 2017)", "key": {"[1]": {"system": "EGFR mutant (L858R, ex19del and T790M) cancer models", "settings": "cited from earlier work"}, "PD-L1 (CD274) [2]": {"system": "PD-L1 (CD274)", "experiment": "Flow cytometry of PD-L1 surface expression in EBC-1 cells treated with INC280", "assay_type": "cell-based, human", "settings": "EBC-1 cells (NSCLC with cMET amplification), in vitro; INC280 10, 100, 1000 nM for 24, 48, 72 hours; FIG. 1", "description": "PD-L1 (CD274) expression was analyzed in cancer cell lines treated with INC280. Cells were obtained from ATCC and cultured in vitro following ATCC directions. The cell lines used were previously characterized by the Cancer Cell Line Encyclopedia Project (www.broadinstitute.org/ccle/home).\nCells plated in six-well culture plates were treated with the INC280 at different concentrations (10 nM, 100 nM, and 1000 nM) for 24, 48 and 72 hours. Equal amount of vehicle (DMSO) was used as a control. Cells were washed with PBS and then harvested using a cell scraper.\nFor each reaction, 0.5-1×10^6 cells were stained with 200 μL of anti-human monoclonal PD-L1-PE antibody, clone M1H1 (BD) for 30-60 minutes at 4° C. Cells were washed twice and data was acquired using a Canto II with FACSDiva software (BD Bioscience). Data analysis was performed using FlowJo software (Tree Star). Mean fluorescence intensity (MFI) was determined by gating on single cells. Unstained cells were used as a gating control."}, "PD-L1 (CD274) [3]": {"system": "PD-L1 (CD274)", "experiment": "TaqMan RT PCR of PD-L1 mRNA in Hs.746.T tumor xenograft", "assay_type": "in vivo, human", "settings": "Hs.746.T tumor (gastric cancer cell with cMET amplification & mutation) xenograft; FIG. 2", "description": "(§1) TaqMan RT PCR assays were developed to detect changes of expression levels of PD-L1 (CD274) in cell lines and xenograft tumors. mRNA was isolated from frozen cell pellets or tumor fragments using the Qiagen RNeasy Mini kit. Isolated RNA was frozen at −80° C. RNA quality was checked and RNA was quantified using a 2100 Agilent Bioanalyzer following the protocol for the Agilent RNA 6000 Nano Kit. cDNA was prepared using a High Capacity RNA- to cDNA Kit (Applied Biosystems).\n(§2) Real-time PCR reactions were carried out in 20 μl total volume, including 10 μl of Universal PCR master mix (Applied Biosystems), 1 μl of human PD-L1 (CD274) probe/primer set (Applied Biosystems), and 8 μl of cDNA. Each sample was run in triplicate. The amount of cDNA produced from 25-50 ng of RNA in the reverse transcription reaction was used in each PCR reaction. Due to difference in mRNA levels between PD-L1 and GAPDH, the two real-time PCR reactions were done in separate tubes using same amount of cDNA. The real-time PCR reaction was run on the C1000 Thermal Cycle (BioRad) with the cycle program as follows: a 10 minute incubation at 95° C. followed by 40 cycles of 95° C. for 15 seconds and 60° C. for 1 minute. After the reaction was complete, the PD-L1 average Ct was normalized relative to each Ct value from the GAPDH reference reaction. Each normalized logarithmic value was then converted into a linear value."}, "PD-L1 (CD274) [4]": {"system": "PD-L1 (CD274)", "experiment": "TaqMan RT PCR of PD-L1 mRNA in UKE-1 tumor xenograft model", "assay_type": "in vivo, human", "settings": "tumor xenograft model bearing UKE-1 (MPN line with JAK2V617F mutation); FIG. 6", "description": "as §1, §2"}, "PBMCs": {"system": "PBMCs", "experiment": "Cytokine analysis (Luminex) of anti-CD3 stimulated PBMCs", "assay_type": "cell-based, human", "settings": "suboptimal anti-CD3 0.005 ug/ml, LCL161 1, 50, 100 or 1000 nM, day 5 supernatants", "description": "Blood was obtained from normal healthy donors. Peripheral blood mononuclear cells (PBMCs) were isolated by centrifuging blood in CPT™ tubes for 18 minutes at 1800×g. Cells were washed twice with cold PBS, enumerated and then stimulated in 96-well round bottomed tissue culture plates (500,000 cells per well) for 5 days at 37° C., 5% CO2. Cells were either left untreated (DMSO control) or treated with different concentrations of LCL161 (1, 50, 100, or 1000 nM). For the cytokine analyses, cells were stimulated with a suboptimal anti-CD3 stimulus (0.005 ug/ml of soluble clone UCHT1). At day 5 post stimulation, supernatants were collected and analyzed for cytokines (Luminex)."}, "TIM-3": {"system": "TIM-3", "experiment": "CyTOF mass cytometry of PBMCs (immune checkpoint modulation)", "assay_type": "cell-based, human", "settings": "PBMCs +/- 100 ng/mL anti-CD3, 100 nM LCL161, 4 days; monocytes, naive, memory and activated T killer cells, memory T helper cells; FIG. 9", "description": "PBMCs were isolated from healthy donors via BD CPT™ vacutainer tubes. 1 million cells/mL were plated in RPMI+10% FBS+/−100 ng/mL of anti-CD3 antibody+/−DMSO or 100 nM LCL161 for 4 days. Cells were harvested, washed, stained with a panel of metal-conjugated antibodies listed below in Table 2 for analysis by CyTOF mass cytometry. Data were visualized by SPADE using Cytobank webware. SPADE and its use are described, e.g., in Peng et al., Nature Biotechnology, 29, 886-891 (2011); Sean et al, Science, 332 (6030): 687-696 (2011).\nA Panel of Metal-Conjugated Antibodies for Analysis by CyTOF Mass Cytometry"}, "[5]": {"system": "human CD4+ and CD8+ T cells", "experiment": "CFSE proliferation analysis of anti-CD3 stimulated PBMCs (FACS)", "assay_type": "cell-based", "settings": "1 ug/ml soluble anti-CD3, increasing concentrations of LCL161, 5 days", "description": "For the proliferation analyses, cells were labeled with 5 uM carboxyfluorescein diacetate succinimidyl ester (CFSE) before stimulation, and then treated with 1 ug/ml soluble anti-CD3. Covalently bound CFSE is divided equally between daughter cells, allowing discrimination of successive rounds of cell division and to track proliferating cells (Lyons et al., Curr Protoc Cytom. 2013; Chapter 9: Unit 9.11). PBMCs were stimulated in the presence of increasing concentrations of LCL161 (or DMSO control) for 5 days. At day 5 post stimulation, cells were harvested, stained with anti-CD4, -CD8, -PD-1, or -CD127, followed by FACS analysis. Results for one donor are shown. Similar results were obtained with PBMCs from 4 other donors."}, "[6]": {"system": "ALK-positive NSCLC patients", "experiment": "Clinical study of LDK378 in ALK-positive NSCLC patients", "assay_type": "in vivo, human", "settings": "750 mg; 53.3% of the patients censored"}, "PD-L1 (CD274) [7]": {"system": "PD-L1 (CD274)", "experiment": "TaqMan RT PCR of PD-L1 mRNA in H3122 cells in vitro", "assay_type": "cell-based, human", "settings": "H3122 (NSCLC with ALK translocation) in vitro; FIG. 3", "description": "as §1, §2"}, "PD-L1 (CD274) [8]": {"system": "PD-L1 (CD274)", "experiment": "TaqMan RT PCR of PD-L1 mRNA in LOXIMV1 tumor xenograft model", "assay_type": "in vivo, human", "settings": "tumor xenograft model bearing LOXIMV1 (BRAF mutant melanoma); FIG. 4", "description": "as §1, §2"}, "PD-L1 (CD274) [9]": {"system": "PD-L1 (CD274)", "experiment": "TaqMan RT PCR of PD-L1 mRNA in HEYA8 tumor xenograft model", "assay_type": "in vivo, human", "settings": "tumor xenograft model bearing HEYA8 (KRAS mutant ovarian cancer); FIG. 5", "description": "as §1, §2"}}}
{"smiles": "Cc1cc(C(=O)Nc2nc3cccc(Cl)c3n2[C@@H]2CCCCN(C(=O)/C=C/CN(C)C)C2)ccn1", "note": "[EGF816, (R,E)-N-(7-chloro-1-(1-(4-(dimethylamino)but-2-enoyl)azepan-3-yl)-1H-benzo[d]imidazol-2-yl)-2-methylisonicotinamide]", "values": [{"measurement": "efficacy in EGFR mutant cancer models", "setting": "[1]; L858R, ex19del and T790M, in vitro and in vivo", "value": "significant efficacy"}, {"measurement": "WT EGFR inhibition", "setting": "[1]; at clinically relevant efficacious concentrations", "value": "no indication of WT EGFR inhibition"}]}
{"smiles": "CNC(=O)c1ccc(-c2cnc3ncc(Cc4ccc5ncccc5c4)n3n2)cc1F", "note": "[INC280, 2-fluoro-N-methyl-4-[7-(quinolin-6-ylmethyl)imidazo[1,2-b][1,2,4]triazin-2-yl]benzamide]", "values": [{"measurement": "surface expression of PD-L1 (flow cytometry)", "setting": "PD-L1 (CD274) [2]", "value": "significant downregulation of surface expression of PD-L1"}, {"measurement": "PD-L1 expression (mRNA)", "setting": "PD-L1 (CD274) [3]", "value": "Inhibition of PD-L1 expression (mRNA)"}]}
{"smiles": "N#CC[C@H](C1CCCC1)n1cc(-c2ncnc3[nH]ccc23)cn1", "note": "[INC424, (3R)-3-cyclopentyl-3-[4-(7H-pyrrolo-[2,3-d]pyrimidin-4-yl)-1H-pyrazol-1-yl]propanenitrile]", "values": [{"measurement": "PD-L1 mRNA", "setting": "PD-L1 (CD274) [4]", "value": "Downregulation of PD-L1 mRNA"}]}
{"smiles": "CN[C@@H](C)C(=O)N[C@H](C(=O)N1CCC[C@H]1c1nc(C(=O)c2ccc(F)cc2)cs1)C1CCCCC1", "note": "[LCL161, (S)—N—((S)-1-cyclohexyl-2-((S)-2-(4-(4-fluorobenzoyl)thiazol-2-yl)pyrrolidin-1-yl)-2-oxoethyl)-2-(methylamino)propanamide]", "values": [{"measurement": "IFN-gamma production", "setting": "PBMCs; FIG. 7A", "value": "increases in immune-active cytokine, IFN-gamma"}, {"measurement": "IL-10 production", "setting": "PBMCs; FIG. 7B", "value": "reduction in immune-suppressive cytokine IL-10"}, {"measurement": "TIM-3 expression", "setting": "TIM-3", "value": "increase in TIM-3 expression"}, {"measurement": "proliferation of CD4+ T cells (CFSE dilution)", "setting": "[5]; FIG. 8A", "value": "enhanced proliferation"}, {"measurement": "proliferation of CD8+ T cells (CFSE dilution)", "setting": "[5]; FIG. 8B", "value": "enhanced proliferation"}]}
{"smiles": "Cc1cc(Nc2ncc(Cl)c(Nc3ccccc3S(=O)(=O)C(C)C)n2)c(OC(C)C)cc1C1CCNCC1", "note": "[LDK378, 5-chloro-N2-(2-isopropoxy-5-methyl-4-(piperidin-4-yl)-phenyl)-N4-[2-(propane-2-sulfonyl)-phenyl]-pyrimidine-2,4-diamine]", "values": [{"measurement": "median progression-free survival (PFS)", "setting": "[6]", "value": 8.21, "unit": "months"}, {"measurement": "PD-L1 mRNA", "setting": "PD-L1 (CD274) [7]", "value": "Inhibition of PD-L1 mRNA"}]}
{"smiles": "COC(=O)N[C@@H](C)CNc1nccc(-c2cn(C(C)C)nc2-c2cc(Cl)cc(NS(C)(=O)=O)c2F)n1", "note": "[LGX818, methyl (S)-(1-((4-(3-(5-chloro-2-fluoro-3-(methylsulfonamido)phenyl)-1-isopropyl-1H-pyrazol-4-yl)pyrimidin-2-yl)amino)propan-2-yl)carbamate]", "values": [{"measurement": "PD-L1 mRNA", "setting": "PD-L1 (CD274) [8]", "value": "Downregulation of PD-L1 mRNA"}]}
{"smiles": "Cn1cnc2c(F)c(Nc3ccc(Br)cc3F)c(C(=O)NOCCO)cc21", "note": "[MEK162, 5-((4-bromo-2-fluorophenyl)amino)-4-fluoro-N-(2-hydroxyethoxy)-1-methyl-1H-benzo[d]imidazole-6-carboxamide]", "values": [{"measurement": "PD-L1 mRNA", "setting": "PD-L1 (CD274) [9]", "value": "Downregulation of PD-L1 mRNA"}]}
